Laboratory results from PMC10746112, “Synthesis and Pro-Apoptotic Effects of Nitrovinylanthracenes and Related Compounds in Chronic Lymphocytic Leukaemia (CLL) and Burkitt’s Lymphoma (BL)” (Molecules, 2023).
Like-named read-outs stand apart in the source and are kept apart here.

Tests used:
[1] = test system: MDA-MB-231 human breast cancer cells; experiment: alamarBlue cell viability assay; format: cell-based; details: eight concentrations 0.001–50 μM
[2] = test system: HG-3 CLL cells; experiment: Annexin V/PI apoptotic assay (FACS); format: cell-based; details: 48 h
Description: (§1) The pro-apoptotic effects of the selected nitrovinylanthracene compounds 19a, 19g, 19i, 19l and 19m after 48 h were next determined using FITC (fluorescein isothiocyanate), Annexin V/PI (propidium iodide) staining and FACS (fluorescence-activated cell sorting) analysis to characterize the mode of cellular death induced. […] The CLL cells PGA1 and HG3 (1 × 10^6 cells/mL) were treated at 37 °C with either vehicle (1% (v/v) DMSO) or the nitrostyrene compounds 19a (10 μM, 5 μM and 1 μM) and 19g, 19i, 19l and 19m (10 μM and 1 μM) for 48 h. The cells were then harvested by centrifugation at 400× g in a temperature-controlled Sorvall centrifuge and rinsed with 0.5 mL of Ca^2+ Annexin-V-binding buffer (0.1 M HEPES, pH 7.4; 0.14 M NaCl; 25 mM CaCl2). The samples were resuspended in 50 µL FITC Annexin V (diluted 1:33 in Ca^2+ Annexin V-binding buffer), incubated on ice for 10 min (protected from light), washed with Annexin-V-binding buffer and re-suspended in 500 µL of propidium iodide (PI) solution (0.5 µg/mL). The samples were analysed within 1 h using a BD Accuri C6 flow cytometer counting 10,000 cells and analysed using the FlowJo software (FlowJo LLC, Ashland, OR, USA) package.

[3] = test system: PGA-1 CLL cells; experiment: Annexin V/PI apoptotic assay (FACS); format: cell-based; details: 48 h
Description: as §1

[4] = test system: MUTU-I Burkitt’s lymphoma cell line; details: read-out: IC50 MUTU-I; previous work; cited from earlier work
[5] = test system: DG-75 Burkitt’s lymphoma cell line; details: read-out: IC50 DG-75; previous work; cited from earlier work
[6] = test system: MUTU-I Burkitt’s lymphoma cell line; experiment: alamarBlue cell viability assay; details: MUTU-I
[7] = test system: DG-75 Burkitt’s lymphoma cell line; experiment: alamarBlue cell viability assay; details: Homo sapiens
[8] = test system: MCF-7 human breast cancer cells; experiment: alamarBlue cell viability assay; details: MCF7, read-out: MCF-7 IC50
[9] = test system: HG-3 CLL cell line; experiment: alamarBlue cell viability assay; details: 24 h
[10] = test system: PGA-1 CLL cell line; experiment: alamarBlue cell viability assay; details: CLL cell, 24 h

Which results are given for `O=[N+]([O-])/C=C/c1c2ccccc2cc2ccccc12` [Compound 19a, (E)-9-(2-nitrovinyl)anthracene]?
IC50 [1]: 3820 nM; total apoptosis ([2]; HG-3, 1 μM): 21%; total apoptosis ([2]; HG-3, 5 μM): 69%; total apoptosis ([2]; HG-3, 10 μM): 93%; total apoptosis ([3]; PGA-1, 1 μM): 40%; total apoptosis ([3]; PGA-1, 5 μM): 67%; total apoptosis ([3]; PGA-1, 10 μM): 94%; IC50 [4]: 3000 nM; IC50 [5]: 1500 nM; viability at 1 µM ([6]; 24 h, read-out: % Viable Cells Remaining MUTU-1, 1 µM, 24 h): 82.5%; viability at 10 µM ([6]; 24 h, read-out: % Viable Cells Remaining MUTU-1, 10 µM, 24 h): 5.91%; IC50 ([6]; read-out: IC50 MUTU-I): 2570 nM; viability at 1 µM ([7]; DG-75, 48 h, read-out: % Viable Cells Remaining DG-75, 1 µM, 48 h): 94.6%; viability at 10 µM ([7]; DG-75, 48 h, read-out: % Viable Cells Remaining DG-75, 10 µM, 48 h): 14%; IC50 ([7]; DG-75, read-out: IC50 DG-75): 2080 nM; IC50 [8]: 1850 nM; viability at 10 µM ([9]; CLL cell, read-out: % Viability HG-3, 10 µM, 24 h): 8%; IC50 ([9]; CLL cell, read-out: HG-3 IC50, 24 h): 2400 nM; IC50 ([9]; read-out: HG-3 IC50): 2430 nM; viability at 10 µM ([10]; read-out: % Viability PGA-1, 10 µM, 24 h): 5.1%; IC50 ([10]; read-out: PGA-1 IC50, 24 h): 3100 nM
